Test system: P. falciparum (NF54 or 3D7 strain) in infected human erythrocytes
Assay: Assay for P. falciparum proliferation in infected human blood cells (SYBR Green)
Type: cell-based
Details: Plasmodium falciparum, Erythrocyte, 72 h, read-out: EC50 (nM), inhibitory efficacy in delaying P. falciparum proliferation in infected human blood cells
Protocol: Assay for P. falciparum Proliferation in Infected Human Blood Cells
Compounds of the invention can be assayed to measure their capacity to inhibit proliferation of P. falciparum parasitemia in infected red blood cells. This parasite proliferation assay measures the increase in parasite DNA content using a DNA intercalating dye, SYBR Green® (INVITROGEN®) which has a high affinity for double stranded DNA.
NF54 or 3D7 P. falciparum strain is grown in complete culturing media until parasitemia reaches 3% to 8% with O+ human erythrocytes. […] 20 μl of screening media is dispensed into 384 well assay plates. 50 nl of compounds of the invention (in DMSO), including antimalarial controls (mefloquine, pyrimethamine and artemisinin), are then transferred into the assay plates, as well as DMSO alone to serve as a negative control for inhibition. Then 30 μl of a suspension of a NF54 or 3D7 P. falciparum infected erythrocytes in screening media is dispensed into the assay plates such that the final hematocrit is 2.5% with a final parasitemia of 0.3%. The plates are placed in a 37° C. incubator for 72 hours in a low oxygen environment containing 93% N2, 4% CO2, and 3% O2 gas mixture. 10 μl of lysis buffer (saponin, triton-X, EDTA) containing a 10× solution of SYBR Green I® in RPMI media is dispensed into the plates. The plates are lidded and kept at room temperature overnight for the lysis of the infected red blood cells. The fluorescence intensity is measured (excitation […], emission 530 nm) using the Envision™ system (Perkin Elmer). The percentage inhibition of 50%, […], is calculated for each compound.

Compound | EC50 [nM]
Fc1ccc(CCc2ccn3ncc(-c4ccc(C(F)(F)F)cc4)c3c2)cc1 [Example 16, 5-(4-fluorophenethyl)-3-(4-(trifluoromethyl)phenyl)pyrazolo[1,5-a]pyridine] | 477

Same assay, conditions: Plasmodium falciparum, Erythrocyte; NF54 or 3D7 strain, 72 hours, SYBR Green fluorescence; read-out: EC50 (nM), inhibitory efficacy in delaying P. falciparum proliferation in infected human blood cells

Compound | EC50 [nM]
CN(C(=O)c1ccc(F)cc1)c1ccn2ncc(-c3ccc(C(N)=O)cc3)c2c1 [Example 56, N-(3-(4-carbamoylphenyl)pyrazolo[1,5-a]pyridin-5-yl)-4-fluoro-N-methylbenzamide] | 8
Cc1ccc(-c2cnn3ccc(C(=O)N(C)c4ccc(C#N)cn4)cc23)nc1 [Example 59, N-(5-cyanopyridin-2-yl)-N-methyl-3-(5-methylpyridin-2-yl)pyrazolo[1,5-a]pyridine-5-carboxamide] | 228
N#Cc1ccc(N(CC2CCOCC2)C(=O)c2ccn3ncc(-c4ccc(C(F)(F)F)cc4)c3c2)cc1 [Example 11, N-(4-cyanophenyl)-N-((tetrahydro-2H-pyran-4-yl)methyl)-3-(4-(trifluoromethyl)phenyl)pyrazolo[1,5-a]pyridine-5-carboxamide] | 6
C[C@@H](N)C(=O)Nc1ccc(-c2cnn3ccc(C(=O)N(C)c4ccc(C#N)cc4)cc23)cc1 [Example 44, (R)-3-(4-(2-aminopropanamido)phenyl)-N-(4-cyanophenyl)-N-methylpyrazolo[1,5-a]pyridine-5-carboxamide] | 1
CN(C)CCN(C(=O)c1ccn2ncc(-c3ccc(C(F)(F)F)cc3)c2c1)c1ccc(C#N)cc1 [Example 10, N-(4-cyanophenyl)-N-(2-(dimethylamino)ethyl)-3-(4-(trifluoromethyl)phenyl)pyrazolo[1,5-a]pyridine-5-carboxamide] | 7
CN(C(=O)c1ccn2ncc(-c3ccc(C(N)=O)cn3)c2c1)c1ccc(C#N)cn1 [Example 61, 3-(5-carbamoylpyridin-2-yl)-N-(5-cyanopyridin-2-yl)-N-methylpyrazolo[1,5-a]pyridine-5-carboxamide] | 20
CN(C(=O)c1ccn2ncc(-c3cnc4[nH]ccc4c3)c2c1)c1ccc(C#N)cn1 [Example 53, N-(5-cyanopyridin-2-yl)-N-methyl-3-(1H-pyrrolo[2,3-b]pyridin-5-yl)pyrazolo[1,5-a]pyridine-5-carboxamide] | 1
CN(C(=O)c1ccn2ncc(-c3ccc(C(F)(F)F)cc3)c2c1)c1ccc(Cl)cc1 [Example 3, N-(4-chlorophenyl)-N-methyl-3-(4-(trifluoromethyl)phenyl)pyrazolo[1,5-a]pyridine-5-carboxamide] | 94
Cc1ccc(N(C)C(=O)c2ccn3ncc(-c4ccc(C(N)=O)cc4)c3c2)nc1 [Example 63, 3-(4-carbamoylphenyl)-N-methyl-N-(5-methylpyridin-2-yl)pyrazolo[1,5-a]pyridine-5-carboxamide] | 6
CN(C(=O)c1ccn2ncc(-c3ccc(-c4ccn[nH]4)cc3)c2c1)c1ccc(C#N)cc1 [Example 23, 3-(4-(1H-pyrazol-5-yl)phenyl)-N-(4-cyanophenyl)-N-methylpyrazolo[1,5-a]pyridine-5-carboxamide] | 2
CC1COc2cc(F)ccc2N1C(=O)c1ccn2ncc(-c3ccc(C(N)=O)cc3)c2c1 (centres unmarked) [Example 72, 4-(5-(7-fluoro-3-methyl-3,4-dihydro-2H-benzo[b][1,4]oxazine-4-carbonyl)pyrazolo[1,5-a]pyridin-3-yl)benzamide] | 5
CN(Cc1ccn2ncc(-c3ccc(C(F)(F)F)cc3)c2c1)c1ccc(F)cc1 [Example 2, 4-fluoro-N-methyl-N-((3-(4-(trifluoromethyl)phenyl)pyrazolo[1,5-a]pyridine-5-yl)methyl)aniline] | 342
CN(c1ccn2ncc(-c3ccc(C(F)(F)F)cc3)c2c1)S(=O)(=O)c1ccc(F)cc1 [Example 31, 4-fluoro-N-methyl-N-(3-(4-(trifluoromethyl)phenyl)pyrazolo[1,5-a]pyridine-5-yl)benzenesulfonamide] | 143
Cc1ccc(N(C)C(C)c2ccn3ncc(-c4ccc(C(N)=O)cc4)c3c2)nc1 (centres unmarked) [Example 65, 4-(5-(1-(methyl(5-methylpyridin-2-yl)amino)ethyl)pyrazolo[1,5-a]pyridin-3-yl)benzamide] | 504
CN(C(=O)c1ccn2ncc(-c3cnc(N)c(F)c3)c2c1)c1ccc(C#N)cc1 [Example 79, 3-(6-amino-5-fluoropyridin-3-yl)-N-(4-cyanophenyl)-N-methylpyrazolo[1,5-a]pyridine-5-carboxamide] | 7
CC(Cn1cccn1)N(C(=O)c1ccn2ncc(-c3ccc(C(N)=O)cc3)c2c1)c1ccc(C#N)cn1 (centres unmarked) [Example 77, N-(1-(1H-pyrazol-1-yl)propan-2-yl)-3-(4-carbamoylphenyl)-N-(5-cyanopyridin-2-yl)pyrazolo[1,5-a]pyridine-5-carboxamide] | 146

Compound | EC50 [nM]
CN(C(=O)c1ccc(F)cc1)c1ccn2ncc(-c3ccc(C(F)(F)F)cc3)c2c1 [Example 29, 4-fluoro-N-methyl-N-(3-(4-(trifluoromethyl)phenyl)pyrazolo[1,5-a]pyridine-5-yl)benzamide] | 150
CN(C)C(=O)c1cc(-c2cnn3ccc(C(=O)N(C)c4ccc(C#N)cn4)cc23)cnc1N [Example 87, 3-(6-amino-5-(dimethylcarbamoyl)pyridin-3-yl)-N-(5-cyanopyridin-2-yl)-N-methylpyrazolo[1,5-a]pyridine-5-carboxamide] | 41
CN(C(=O)c1ccn2ncc(-c3cnc(N)c(Cl)c3)c2c1)c1ccc(C#N)cn1 [Example 86, 3-(6-amino-5-chloropyridin-3-yl)-N-(5-cyanopyridin-2-yl)-N-methylpyrazolo[1,5-a]pyridine-5-carboxamide] | 10
CN(C(=O)c1ccn2ncc(-c3ccc(NC(=O)CN)cc3)c2c1)c1ccc(C#N)cc1 [Example 43, 3-(4-(2-aminoacetamido)phenyl)-N-(4-cyanophenyl)-N-methylpyrazolo[1,5-a]pyridine-5-carboxamide] | 9
CN(C(=O)Nc1ccc(F)cc1)c1ccn2ncc(-c3ccc(C(F)(F)F)cc3)c2c1 [Example 47, 3-(4-fluorophenyl)-1-methyl-1-(3-(4-(trifluoromethyl)phenyl)pyrazolo[1,5-a]pyridin-5-yl)urea] | > 9000
CNC(=O)c1ccc(-c2cnn3ccc(C(=O)N(C)c4ccc(F)cc4)cc23)cc1 [Example 64, N-(4-fluorophenyl)-N-methyl-3-(4-(methylcarbamoyl)phenyl)pyrazolo[1,5-a]pyridine-5-carboxamide] | 20
CC(=O)Nc1ccc(-c2cnn3ccc(C(=O)N(C)c4ccc(C#N)cc4)cc23)cn1 [Example 18, 3-(6-acetamidopyridin-3-yl)-N-(4-cyanophenyl)-N-methylpyrazolo[1,5-a]pyridine-5-carboxamide] | 3
CN(C(=O)c1ccc(C2CC2)cc1)c1ccn2ncc(-c3ccc(C(F)(F)F)cc3)c2c1 [Example 50, 4-cyclopropyl-N-methyl-N-(3-(4-(trifluoromethyl)phenyl)pyrazolo[1,5-a]pyridin-5-yl)benzamide] | 3850
CNC(=O)c1ccc(-c2cnn3ccc(C(=O)N4c5ccc(F)cc5OCC4C)cc23)cc1 (centres unmarked) [Example 74, 4-(5-(7-fluoro-3-methyl-3,4-dihydro-2H-benzo[b][1,4]oxazine-4-carbonyl)pyrazolo[1,5-a]pyridin-3-yl)-N-methylbenzamide] | 52
CC(c1ccn2ncc(-c3ccc(C(N)=O)cc3)c2c1)N1C(=O)COc2cc(F)ccc21 (centres unmarked) [Example 66, 4-(5-(1-(7-fluoro-3-oxo-2H-benzo[b][1,4]oxazin-4(3H)-yl)ethyl)pyrazolo[1,5-a]pyridin-3-yl)benzamide] | 49
Cc1ccc(N(C)C(=O)c2ccn3ncc(-c4ccc(C(F)(F)F)cc4)c3c2)nc1 [Example 5, N-methyl-N-(5-methylpyridin-2-yl)-3-(4-(trifluoromethyl)phenyl)pyrazolo[1,5-a]pyridine-5-carboxamide] | 88
CC(=O)Nc1ccc(-c2cnn3ccc(C(C)N(C)c4ccc(C)cn4)cc23)cc1 (centres unmarked) [Example 68, N-(4-(5-(1-(methyl(5-methylpyridin-2-yl)amino)ethyl)pyrazolo[1,5-a]pyridin-3-yl)phenyl)acetamide] | 6750
CN(Cc1ccc(F)cc1)c1ccn2ncc(-c3ccc(C(F)(F)F)cc3)c2c1 [Example 36, N-(4-fluorobenzyl)-N-methyl-3-(4-(trifluoromethyl)phenyl)pyrazolo[1,5-a]pyridine-5-amine] | 390
[O-][S+](Cc1ccn2ncc(-c3ccc(C(F)(F)F)cc3)c2c1)c1ccc(F)cc1 (centres unmarked) [Example 22, 5-(((4-fluorophenyl)sulfinyl)methyl)-3-(4-(trifluoromethyl)phenyl)pyrazolo[1,5-a]pyridine] | 25
CN(C(=O)c1ccn2ncc(-c3ccc(C(N)=O)cc3)c2c1)c1ccc(Cl)cc1C=O [Example 89, 3-(4-carbamoylphenyl)-N-(4-chloro-2-formylphenyl)-N-methylpyrazolo[1,5-a]pyridine-5-carboxamide] | 6

From US8871754B2, “Compounds and compositions for the treatment of parasitic diseases” (IRM LLC, priority 2012, dated 2014)
